Experimental data as given in US20260183273A1, “N,N-dialkyl-4-(2-ethylindan-2-yl)-1H-imidazole-1-carboxamides and related compounds for treatment of neurodegenerative diseases” (priority 2023, published 2026).
Where two headings read alike, the source gives them in different places.

How the values were obtained:
[1] = Hydrolysis in plasma (LC-MS); assay type: in vitro ADME, human
Method: Samples were analysed by LC-MS system, which included Thermo Scientific UltiMate 3000 UHPLC liquid chromatograph and Thermo Scientific Exactive Plus Hybrid Quadrupole-Orbitrap mass spectrometer. The general method used a Waters Acquity UPLC® BEH C18 column (2.1×50 mm, 1.7 μm) and Waters Vanguard UPLC® BEH C18 precolumn (2.1×5 mm, 1.7 μm), thermostated at 40° C., with: injection volume, 1 μL; flow rate, 0.4 mL/min; autosampler temperature: 15° C., detector Full MS-SIM (runtime 1.5-3 min, positive mode, resolution: 70 000; AGC target: 3e^6; maximum IT: 200 ms; scan range: 200-300 m/z); mobile phase A: 0.1% formic acid in MQ water; B: 0.1% formic acid in acetonitrile. Gradient: 0-3 min, 20-75% B; 3-3.1 min 75-95% B; 3.1-4 min 95% B; 4-4.1 min 95-20% B; 4.1-6 min 20% B. Processing: ICIS peak detection algorithm, analyte 6—expected retention time: 1.87 min, 30 s window, mass range 213.14; analyte 7—expected retention time: 2.40 min, 30 s window, mass range 284.18.
To construct the calibration curves, the highest concentration (800 nM) stock solution was prepared in plasma, and serially diluted with plasma to different compound concentrations (8, 20, 40, 60, 80, 200, 400, 600, 800 nM). 50 μL of the respective biological sample were diluted with 200 μL MeOH, vortexed, centrifuged at 4° C. and 5000 rpm for 10 min, the supernatant transferred to HPLC vials with inserts, and analysed. 5 replicates were injected to check the precision, and to ascertain the matrix effects in plasma, 0.5 μL of […] 6 was diluted with 49.5 μL of either plasma or MQ water. […] To monitor the progress of 7 hydrolysis in plasma, 1 vol. % of 7.5 μM 7 stock solution was mixed with plasma, 50 μL aliquots were drawn successively after 1, 5, and 60 min and analysed as described above. In a control experiment, the plasma used was pretreated for 5 min with 1 mM ethopropazine to inhibit BChE, then 7 was added, and the above procedure followed.
(§1) As both 7 and BChE were being depleted, near the final timepoint the reaction rate slowed down considerably. […] 7 is readily hydrolysed in contact with plasma BChE—therefore, after an in vivo application (either parenteral or per os), adrenergic-active moiety 6 should be liberated in the bloodstream, permeate the blood-brain barrier, and reach the site of action in the central nervous system.

hBChE = hBChE (Homo sapiens, UniProt P06276); experiment: Inhibition of cholinesterases, method of Ellman (hBChE); assay type: biochemical; conditions: for hBChE time-dependency observed: yes/no: pre-incubation time varied (1, 5, 15, 30 or 60 min); for hBChE RA-residual activity: mean ± standard deviation, test concentration not given
hBChE, sequence (P06276 29-602): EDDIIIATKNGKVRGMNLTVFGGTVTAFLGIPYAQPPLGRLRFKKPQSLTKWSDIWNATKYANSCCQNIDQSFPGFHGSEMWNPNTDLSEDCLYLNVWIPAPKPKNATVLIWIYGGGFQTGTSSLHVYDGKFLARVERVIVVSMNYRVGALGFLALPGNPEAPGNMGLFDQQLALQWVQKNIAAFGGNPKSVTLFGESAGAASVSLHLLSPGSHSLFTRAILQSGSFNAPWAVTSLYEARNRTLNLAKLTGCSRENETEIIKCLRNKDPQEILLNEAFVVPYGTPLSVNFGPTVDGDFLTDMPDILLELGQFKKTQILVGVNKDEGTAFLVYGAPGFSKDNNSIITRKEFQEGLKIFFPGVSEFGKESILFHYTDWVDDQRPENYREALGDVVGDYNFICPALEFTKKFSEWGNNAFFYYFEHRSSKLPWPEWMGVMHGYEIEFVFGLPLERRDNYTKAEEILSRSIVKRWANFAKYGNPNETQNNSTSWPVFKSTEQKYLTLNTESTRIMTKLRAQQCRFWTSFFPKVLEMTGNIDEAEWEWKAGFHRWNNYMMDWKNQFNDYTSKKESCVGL
Method: (§2) For time-dependency measurements, the pre-incubation time was varied (1 min, 5 min, 15 min, 30 min or 60 min). The reactions were started by the addition of the substrate (final concentration, 500 μM butyrylthiocholine iodide or acetylthiocholine iodide for hBChE and hAChE, respectively). The final content of DMSO was always 1%. […] The initial velocities in the presence (vi) and absence (vo) of the test compounds were calculated. The inhibitory potencies were expressed as the residual activities, according to RA=(vi−b)/(vo−b), where b is the blank value using phosphate buffer without ChEs. For IC50 determinations, at least seven different concentrations for each compound were used. The IC50 values were obtained by plotting the residual ChE activities against the applied inhibitor concentrations, with the experimental data fitted to a four-parameter logistic function (GraphPad Prism 9.4). Tacrine and donepezil were used as positive controls.

hAChE = hAChE (Homo sapiens, UniProt P22303); experiment: biochemical; assay type: biochemical
hAChE, sequence (P22303 32-614): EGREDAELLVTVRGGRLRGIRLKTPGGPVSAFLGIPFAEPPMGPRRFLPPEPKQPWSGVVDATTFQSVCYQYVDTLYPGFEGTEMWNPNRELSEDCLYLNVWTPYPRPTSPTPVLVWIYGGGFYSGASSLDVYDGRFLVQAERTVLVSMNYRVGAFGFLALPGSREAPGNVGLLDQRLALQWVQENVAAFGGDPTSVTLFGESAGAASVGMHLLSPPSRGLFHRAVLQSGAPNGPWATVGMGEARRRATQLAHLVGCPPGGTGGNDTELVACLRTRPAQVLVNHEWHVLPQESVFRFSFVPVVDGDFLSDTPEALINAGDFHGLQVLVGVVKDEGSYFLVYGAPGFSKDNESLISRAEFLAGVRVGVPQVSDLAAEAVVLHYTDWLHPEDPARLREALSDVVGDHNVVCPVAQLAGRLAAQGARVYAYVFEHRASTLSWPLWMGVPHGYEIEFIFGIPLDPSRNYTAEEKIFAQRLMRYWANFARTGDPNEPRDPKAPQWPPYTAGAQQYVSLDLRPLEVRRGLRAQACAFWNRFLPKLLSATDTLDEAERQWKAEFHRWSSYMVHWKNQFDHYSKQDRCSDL
Method: as §2

[2] = target: T1, human α2A adrenoreceptor from CHO cells (Homo sapiens, UniProt P08913); experiment: α2A binding assay (Eurofins), antagonist radioligand [3H]RX821002
T1 construct: host or cells: CHO cells
T1 sequence (P08913 1-465): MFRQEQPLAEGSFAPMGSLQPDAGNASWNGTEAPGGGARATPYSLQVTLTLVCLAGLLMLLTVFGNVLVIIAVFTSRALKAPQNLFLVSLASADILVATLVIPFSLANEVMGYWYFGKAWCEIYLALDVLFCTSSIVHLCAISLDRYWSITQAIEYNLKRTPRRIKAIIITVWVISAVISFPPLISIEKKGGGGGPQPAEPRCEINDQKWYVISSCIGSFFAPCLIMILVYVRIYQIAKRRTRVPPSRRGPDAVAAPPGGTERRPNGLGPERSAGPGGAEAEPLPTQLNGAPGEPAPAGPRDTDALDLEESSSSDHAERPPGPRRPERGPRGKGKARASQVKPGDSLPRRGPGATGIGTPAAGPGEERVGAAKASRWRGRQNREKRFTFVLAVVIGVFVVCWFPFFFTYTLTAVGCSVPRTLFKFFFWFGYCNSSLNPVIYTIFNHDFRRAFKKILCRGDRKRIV
Method: In each experiment the respective reference compound (yohimbine) was tested concurrently with the test compounds, and the data were compared with historical values determined at Eurofins. The experiment was accepted in accordance with Eurofins validation Standard Operating Procedure. Inhibition above 50% is considered to represent significant effects of the test compounds. The inhibition constants (Ki) were calculated using the Cheng-Prusoff equation.

[3] = Non-enzymatic hydrolysis (aqueous stability); assay type: physicochemical; conditions: compared with hydrolysis in plasma
Method: Reactions were monitored using analytical thin-layer chromatography (TLC) on silica gel 60 F254 Al plates. Developed plates were inspected under UV light and, if necessary, visualized with ninhydrin, vanillin/sulfuric acid, Dragendorff's or potassium permanganate stains. Melting points were determined with Büchi 535 Melting Point Apparatus (uncorrected). Nuclear magnetic resonance spectra were recorded on a Bruker Avance III 400 MHz spectrometer at 400 MHz for ^1H, 100 MHz for ^13C, and 376 MHz for ^19F nucleus, respectively, using CDCl3 with TMS as the internal standard as solvent. […] Mass spectra were recorded on Thermo Scientific Q Executive Plus LC-MS/MS spectrometer and IR spectra on Thermo Nicolet FT-IR spectrophotometer. […] The purities of the tested compounds were established to be ≥95%, as determined by UPLC.
as §1

[4] = control plasma with 1 mM ethopropazine, nominal 75 nM 7, timepoint 60 min
[5] = hydrolysis of 7 in human plasma, nominal 75 nM, timepoint 1 min
[6] = hydrolysis of 7 in human plasma, nominal 75 nM, timepoint 5 min
[7] = hydrolysis of 7 in human plasma, nominal 75 nM, timepoint 60 min
[8] = 5 min preincubation, read-out: hBChE IC50 ± SEM
[9] = pre-incubation time varied (1, 5, 15, 30 or 60 min)

## CCC1(c2cnc[nH]2)Cc2ccccc2C1 [Compound 6, 4-(2-ethylindan-2-yl)-1H-imidazole]
[1]; [4]
  concentration of analyte: 9.816 nM
[1]; [5]
  concentration of analyte: 15.911 nM
[1]; [6]
  concentration of analyte: 29.071 nM
[1]; [7]
  concentration of analyte: 65.375 nM

## CCC1(c2ncn(C(=O)N(C)C)n2)Cc2ccccc2C1 [Compound 16, 3-(2-Ethylindan-2-yl)-N,N-dimethyl-1H-1,2,4-triazole-1-carboxamide]
hBChE; [8]
  IC50: 4.12 ± 0.35 nM
hBChE
  hBChE time-dependency observed: yes/no: yes
hAChE; read-out: hAChE IC50 ± SEM
  IC50: 1980 ± 239 nM

## CCC1(c2cn(C(=O)N(C)C)cn2)Cc2ccccc2C1 [Compound 7, 4-(2-Ethylindan-2-yl)-N,N-dimethyl-1H-imidazole-1-carboxamide]
hBChE; [8]
  IC50: 12.6 ± 2 nM
hBChE
  hBChE time-dependency observed: yes/no: yes
hAChE
  hAChE time-dependency observed: yes/no: 30507 ± 6304 yes
hAChE; read-out: hAChE IC50 ± SEM
  IC50: 30500 ± 6300 nM
[2]
  inhibition at 1 µM: 6%
[1]; control plasma with 1 mM ethopropazine, nominal 75 nM 7, timepoint 1 min
  concentration of analyte: 74.477 nM
[1]; control plasma with 1 mM ethopropazine, nominal 75 nM 7, timepoint 5 min
  concentration of analyte: 72.158 nM
[1]; [4]
  concentration of analyte: 71.131 nM
[1]; [5]
  concentration of analyte: 66.508 nM
[1]; [6]
  concentration of analyte: 55.665 nM
[1]; [7]
  concentration of analyte: 22.431 nM
[3]
  non-enzymatic hydrolysis rate: several orders of magnitude slower

## CCC1(c2cnn(C(=O)N(C)C)n2)Cc2ccccc2C1 [Compound 14, 4-(2-Ethylindan-2-yl)-N,N-dimethyl-2H-1,2,3-triazole-2-carboxamide]
hBChE; [8]
  IC50: 2.39 ± 0.63 nM
hBChE
  hBChE time-dependency observed: yes/no: yes
hAChE
  hAChE time-dependency observed: yes/no: 180.9 ± 35.5 yes
hAChE; read-out: hAChE IC50 ± SEM
  IC50: 181 ± 35.5 nM

## CCC1(c2nc[nH]n2)Cc2ccccc2C1 [Compound 15, 3-(2-Ethylindan-2-yl)-1H-1,2,4-triazole]
hBChE; 5 min preincubation
  hBChE IC50 ± SEM: Not active
  hBChE RA-residual activity: 95.9 ± 6.8%
hAChE
  hAChE IC50 ± SEM: Not active (79.8 ± 7.0%)
  hAChE RA-residual activity: Not active (79.8 ± 7.0%)
[2]
  inhibition at 1 µM: 2.1%

## CCN(CC)C(=O)n1cnc(C2(CC)Cc3ccccc3C2)c1 [Compound 8, N,N-diethyl-4-(2-ethylindan-2-yl)-1H-imidazole-1-carboxamide]
hBChE; [8]
  IC50: 1460 ± 218 nM
hBChE
  hBChE time-dependency observed: yes/no: yes
hAChE
  hAChE IC50 ± SEM: Not active (66.8 ± 4.7%) no
  hAChE RA-residual activity: Not active (66.8 ± 4.7%) no

## CCC1(c2cn[nH]n2)Cc2ccccc2C1 [Compound 13, 4-(2-Ethylindan-2-yl)-2H-1,2,3-triazole]
hBChE; 5 min preincubation
  hBChE IC50 ± SEM: Not active
  hBChE RA-residual activity: 60.3 ± 1.0%
hAChE
  hAChE IC50 ± SEM: Not active (87.3 ± 7.5%)
  hAChE RA-residual activity: Not active (87.3 ± 7.5%)
[2]
  inhibition at 1 µM: 6.1%

## CCC1(c2cn(C(=O)N(C)C)c[n+]2C)Cc2ccccc2C1 [Compound 9, 1-(Dimethylcarbamoyl)-4-(2-ethylindan-2-yl)-3-methyl-1H-imidazol-3-ium trifluoromethanesulfonate]
hBChE
  IC50: 4.18 ± 0.77 nM
  hBChE time-dependency observed: yes/no: yes
hAChE
  IC50: 431 ± 113 nM
hAChE; [9]
  hAChE time-dependency observed: yes/no: yes

## CCC1(c2cn(C(=O)N3CCCCC3)cn2)Cc2ccccc2C1 [Compound 18, (4-(2-ethylindan-2-yl)-1H-imidazol-1-yl)(piperidin-1-yl)methanone]
hBChE; [8]
  IC50: 4.8 ± 0.944 nM
hBChE
  hBChE time-dependency observed: yes/no: yes
hAChE; read-out: hAChE IC50 ± SEM
  IC50: 5180 ± 1620 nM

## [2H]C([2H])([2H])C([2H])([2H])C1(c2cn(C(=O)N(CC)CC)cn2)Cc2ccccc2C1 [Compound 21, N,N-diethyl-4-(2-(ethyl-d5)indan-2-yl)-1H-imidazole-1-carboxamide]
hBChE; [8]
  IC50: 7830 ± 1320 nM
hBChE
  hBChE time-dependency observed: yes/no: yes
hAChE; 5 min preincubation, mean ± standard deviation, test concentration not given
  hAChE RA-residual activity: 58.9 ± 2.3%
hAChE; [9]
  hAChE time-dependency observed: yes/no: yes

## CCC1(c2cn(C(=O)N(C)Cc3ccccc3)cn2)Cc2ccccc2C1 [Compound 17, N-benzyl-4-(2-ethylindan-2-yl)-N-methyl-1H-imidazole-1-carboxamide]
hBChE; [8]
  IC50: 95.7 ± 17.1 nM
hBChE
  hBChE time-dependency observed: yes/no: yes
hAChE
  hAChE RA-residual activity: 46.4 ± 3.3% yes
